Measured values reported in patent US8633207B2, “Quinazoline compounds and methods of use thereof” (Ambit Biosciences Corporation, priority 2010, dated 2014).

How the values were obtained:
[1] = test system: GM-CSFR/JAK2/STAT5 pathway; assay: csTF-1 cell-based reporter assay; conditions: Homo sapiens; csTF-1 cells, GM-CSF at 2 ng/mL, 4 hours; read-out: Cell Assay: CS TF-1 reporter assay IC50
Description: csTF-1 Cell-Based Reporter Assay
csTF-1 cells are derived from the human erythroleukemia cell line that is growth dependent on GM-CSF and has an intact GM-CSFR/JAK2/STAT5 pathway. The cell line contains stably integrated beta-lactamase reporter gene under the control of the […] (irf 1) response element recognized by the activated transcription factor STATS. csTF-1 cells (Invitrogen K1219) were washed with assay media (97% OPTIMEM/0.5% dialyzed FBS/0.1 mM NEAA/1 mM Na pyr/P/S) and seeded in the same media at 5×10^5 cell/mL in T150 flask. After 16 hour incubation, cells were seeded at 2×10^5 cell/well in 50 μl volume, into Costar, clear bottom, 96-well assay plates. Serial dilutions of compounds were added to the plates with final DMSO concentration at 0.5% and GM-CSF at 2 ng/mL and the plates were then incubated at […] and 5% CO2 for 4 hours. The plates were brought to room temperature before adding Substrate Mixture according to manufacturer's protocol (Invitrogen, Catalog #K1085). The assay plates containing the substrate mixture were incubated in the dark at room temperature for 2 hours. Blue and green fluorescence was measured with excitation at 409 nm and emission at 460 nm (for blue) and excitation at 409 nm and emission at 530 nm (for green) using Spectra Max Gemini EM.

[2] = target: T1, Tyk2 (Homo sapiens, UniProt P29597); assay: Competition binding assay to determine Kd against JAK kinases: Tyk2
T1 construct: made in house; host or cells: T7 phage display, or HEK-293 cells (alternative)
Text: (§1) Competition Binding Assay to Determine Binding Constants (Kd) of the Compounds Against JAK Kinases
(§2) Competition binding assays used herein were developed, validated and performed as described in Fabian et al., Nature Biotechnology 2005, 23, 329-336. Kinases were produced as fusions to T7 phage (See, Fabian et al. or WO04/015142) or alternatively, the kinases were expressed in HEK-293 cells and subsequently tagged with DNA for PCR detection (See, WO08/005,310). For the binding assays, streptavidin-coated magnetic beads were treated with biotinylated affinity ligands for 30 min at rt to generate affinity resins. The liganded beads were blocked with excess biotin and washed with blocking buffer (SeaBlock (Pierce), 1% BSA, 0.05% Tween 20, 1 mM DTT) to remove unbound ligand and to reduce non-specific binding. Binding reactions were assembled by combining kinase, liganded affinity beads, and test compounds in 1× binding buffer (20% SeaBlock, 0.17×PBS, 0.05% Tween 20, 6 mM DTT). Test compounds were prepared as 100× stocks in DMSO and rapidly diluted into the aqueous environment. DMSO was added to control assays lacking a test compound. Primary screen interactions were performed in polypropylene 384-well plates in a final volume of 34 μL, while Kd determinations were performed in polystyrene 96-well plates in a final volume of 135 μL. The assay plates were incubated at room temperature with shaking for 1 hour, long enough for binding reactions to reach equilibrium, and the affinity beads were washed extensively with wash buffer (1×PBS, 0.05% Tween 20) to remove unbound protein. The beads were then resuspended in elution buffer (1×PBS, 0.05% Tween 20, 2 μM non-biotinylated affinity ligand) and incubated at room temperature with shaking for 30 min. The kinase concentration in the eluates was measured by quantitative PCR. Each kinase was tested individually against each compound. Kds were determined using eleven serial threefold dilutions. A selectivity score, which is a quantitative measure of selectivity of a compound against a panel of enzymes, may be calculated for a compound by dividing the number of enzymes for which a compound meets a set criteria, (for example, a binding constant of 100 nM or less), by the total number of enzymes tested.

[3] = target: T2, JAK3 (Homo sapiens, UniProt P52333); assay: Competition binding assay to determine Kd against JAK kinases: JAK3
T2 construct: made in house; host or cells: T7 phage display, or HEK-293 cells (alternative)
T2 sequence (P52333 1-1124): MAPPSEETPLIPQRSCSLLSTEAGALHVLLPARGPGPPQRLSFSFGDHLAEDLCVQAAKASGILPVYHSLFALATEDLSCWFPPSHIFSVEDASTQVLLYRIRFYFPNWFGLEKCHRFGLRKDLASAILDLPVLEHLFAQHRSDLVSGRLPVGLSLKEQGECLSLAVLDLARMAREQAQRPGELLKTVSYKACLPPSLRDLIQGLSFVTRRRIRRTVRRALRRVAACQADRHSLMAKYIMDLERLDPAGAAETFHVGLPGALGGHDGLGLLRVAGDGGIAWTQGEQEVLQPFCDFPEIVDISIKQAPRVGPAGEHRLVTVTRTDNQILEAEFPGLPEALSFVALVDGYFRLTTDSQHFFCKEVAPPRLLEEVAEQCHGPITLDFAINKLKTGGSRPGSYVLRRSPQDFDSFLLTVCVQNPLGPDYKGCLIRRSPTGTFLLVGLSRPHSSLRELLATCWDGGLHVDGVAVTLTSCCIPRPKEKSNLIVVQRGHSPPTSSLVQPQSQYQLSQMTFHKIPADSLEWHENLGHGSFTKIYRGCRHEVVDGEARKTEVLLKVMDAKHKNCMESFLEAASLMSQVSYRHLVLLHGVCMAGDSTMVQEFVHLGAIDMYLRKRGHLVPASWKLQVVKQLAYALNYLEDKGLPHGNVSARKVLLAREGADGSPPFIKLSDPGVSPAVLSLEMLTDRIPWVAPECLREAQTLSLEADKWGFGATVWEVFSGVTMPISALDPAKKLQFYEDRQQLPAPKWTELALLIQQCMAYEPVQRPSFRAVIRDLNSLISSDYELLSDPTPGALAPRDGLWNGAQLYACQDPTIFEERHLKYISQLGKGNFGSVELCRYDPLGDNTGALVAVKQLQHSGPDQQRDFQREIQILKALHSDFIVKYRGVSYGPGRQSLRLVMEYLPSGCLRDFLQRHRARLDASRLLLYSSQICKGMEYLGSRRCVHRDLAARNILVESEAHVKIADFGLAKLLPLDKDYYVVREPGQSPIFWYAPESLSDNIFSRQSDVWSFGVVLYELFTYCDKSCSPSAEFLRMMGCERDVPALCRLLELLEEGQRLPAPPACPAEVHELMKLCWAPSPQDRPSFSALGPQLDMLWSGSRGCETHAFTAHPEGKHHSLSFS
Text: as §1, §2

[4] = target: T3, JAK2 (Homo sapiens, UniProt O60674); assay: Competition binding assay to determine Kd against JAK kinases: JAK2
T3 construct: made in house; host or cells: T7 phage display, or HEK-293 cells (alternative)
Text: as §1, §2

T1 sequence (P29597 whole entry): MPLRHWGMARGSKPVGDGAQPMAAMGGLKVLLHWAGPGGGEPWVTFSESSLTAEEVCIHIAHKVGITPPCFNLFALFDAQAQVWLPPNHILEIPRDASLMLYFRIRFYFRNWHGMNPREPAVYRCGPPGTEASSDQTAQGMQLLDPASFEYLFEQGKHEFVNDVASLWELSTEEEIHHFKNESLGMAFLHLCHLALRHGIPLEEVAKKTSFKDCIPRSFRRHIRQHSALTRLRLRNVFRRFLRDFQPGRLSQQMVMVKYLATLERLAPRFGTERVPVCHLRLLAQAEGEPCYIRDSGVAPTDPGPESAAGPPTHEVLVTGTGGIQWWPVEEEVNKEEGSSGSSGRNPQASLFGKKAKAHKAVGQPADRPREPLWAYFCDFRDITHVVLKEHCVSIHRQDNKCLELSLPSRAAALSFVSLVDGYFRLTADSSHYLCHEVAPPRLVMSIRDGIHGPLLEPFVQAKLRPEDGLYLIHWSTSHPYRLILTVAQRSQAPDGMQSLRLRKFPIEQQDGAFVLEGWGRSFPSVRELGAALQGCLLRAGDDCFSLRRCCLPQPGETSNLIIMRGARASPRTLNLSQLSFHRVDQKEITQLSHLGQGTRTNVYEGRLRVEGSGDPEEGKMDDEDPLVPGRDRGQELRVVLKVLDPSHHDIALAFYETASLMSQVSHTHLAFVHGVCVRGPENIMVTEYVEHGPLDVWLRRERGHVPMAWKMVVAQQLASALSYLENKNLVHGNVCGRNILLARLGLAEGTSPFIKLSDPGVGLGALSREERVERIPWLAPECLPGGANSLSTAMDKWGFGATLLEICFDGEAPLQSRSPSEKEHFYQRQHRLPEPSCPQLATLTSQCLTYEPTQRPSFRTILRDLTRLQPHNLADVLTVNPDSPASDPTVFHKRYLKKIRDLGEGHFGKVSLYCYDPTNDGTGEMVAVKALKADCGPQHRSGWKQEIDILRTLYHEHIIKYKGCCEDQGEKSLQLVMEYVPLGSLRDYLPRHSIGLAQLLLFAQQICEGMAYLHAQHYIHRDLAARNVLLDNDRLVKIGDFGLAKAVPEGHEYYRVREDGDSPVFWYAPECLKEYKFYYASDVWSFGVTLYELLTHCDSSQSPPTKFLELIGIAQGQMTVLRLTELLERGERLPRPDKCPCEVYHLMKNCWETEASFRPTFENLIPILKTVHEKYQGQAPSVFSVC
T3 sequence (O60674 whole entry): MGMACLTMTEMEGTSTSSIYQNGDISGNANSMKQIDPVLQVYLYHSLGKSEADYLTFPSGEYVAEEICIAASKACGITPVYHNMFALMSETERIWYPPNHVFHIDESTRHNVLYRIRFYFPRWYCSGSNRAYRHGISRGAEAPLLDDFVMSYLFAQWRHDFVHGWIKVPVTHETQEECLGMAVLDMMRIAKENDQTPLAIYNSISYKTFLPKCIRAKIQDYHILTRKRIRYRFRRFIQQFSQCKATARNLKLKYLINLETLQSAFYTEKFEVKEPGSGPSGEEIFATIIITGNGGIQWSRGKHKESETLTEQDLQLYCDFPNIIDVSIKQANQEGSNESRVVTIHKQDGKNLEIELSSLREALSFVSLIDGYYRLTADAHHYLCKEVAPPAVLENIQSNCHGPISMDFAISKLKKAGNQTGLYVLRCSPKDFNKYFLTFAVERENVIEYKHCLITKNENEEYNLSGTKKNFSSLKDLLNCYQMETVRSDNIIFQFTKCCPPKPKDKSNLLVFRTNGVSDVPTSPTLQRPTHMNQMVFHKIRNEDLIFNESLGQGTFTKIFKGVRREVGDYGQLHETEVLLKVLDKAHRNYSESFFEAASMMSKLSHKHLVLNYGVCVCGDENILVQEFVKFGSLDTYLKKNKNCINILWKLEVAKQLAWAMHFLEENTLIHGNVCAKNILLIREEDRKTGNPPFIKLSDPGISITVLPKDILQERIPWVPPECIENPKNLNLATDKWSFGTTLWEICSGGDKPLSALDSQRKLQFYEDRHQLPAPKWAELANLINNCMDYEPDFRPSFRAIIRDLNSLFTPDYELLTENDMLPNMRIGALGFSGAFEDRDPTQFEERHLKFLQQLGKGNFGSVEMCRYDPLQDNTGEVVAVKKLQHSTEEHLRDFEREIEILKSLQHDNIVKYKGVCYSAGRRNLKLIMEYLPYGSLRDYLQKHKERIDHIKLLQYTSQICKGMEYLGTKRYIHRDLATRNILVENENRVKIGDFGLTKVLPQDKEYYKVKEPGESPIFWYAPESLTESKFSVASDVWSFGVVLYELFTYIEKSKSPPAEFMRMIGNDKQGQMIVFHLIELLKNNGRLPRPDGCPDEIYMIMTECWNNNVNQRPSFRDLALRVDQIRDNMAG

IC50 [1] [nM]	Kd [2] [nM]	Kd [3] [nM]	Kd [4] [nM]	SMILES
≤ 100	≤ 10	≤ 10	≤ 1	CC(=O)Nc1cccc2c(Nc3cc(C)[nH]n3)nc(C(F)(F)c3ccc(F)cn3)nc12 [Example 48, N-(2-(difluoro(5-fluoropyridin-2-yl)methyl)-4-((5-methyl-1H-pyrazol-3-yl)amino)quinazolin-8-yl)acetamide]
≤ 100	≤ 10	≤ 10	≤ 1	Cc1cc(Nc2nc(C(F)(F)c3ccc(F)cn3)nc3c(NS(C)(=O)=O)cccc23)n[nH]1 [Example 52, N-(2-(difluoro(5-fluoropyridin-2-yl)methyl)-4-((5-methyl-1H-pyrazol-3-yl)amino)quinazolin-8-yl)methanesulfonamide]
	≤ 10	≤ 10	≤ 1	COC(=O)c1cccc2c(Nc3cc(C)[nH]n3)nc(C(F)(F)c3ccc(F)cn3)nc12 [Example 47, methyl 2-(difluoro(5-fluoropyridin-2-yl)methyl)-4-((5-methyl-1H-pyrazol-3-yl)amino)quinazoline-8-carboxylate]
≤ 100	≤ 10	10 to 100	≤ 1	Cc1cc(Nc2nc(C(F)(F)c3ncc(F)cn3)nc3c(Cl)cccc23)n[nH]1 [Example 40, 8-chloro-2-(difluoro(5-fluoropyrimidin-2-yl)methyl)-N-(5-methyl-1H-pyrazol-3-yl)quinazolin-4-amine]
> 500	≤ 10	≤ 10	≤ 1	Cc1cc(Nc2nc(C(F)(F)c3ccc(F)cn3)nc3c(O)cccc23)n[nH]1 [Example 46, 2-(difluoro(5-fluoropyridin-2-yl)methyl)-4-((5-methyl-1H-pyrazol-3-yl)amino)quinazolin-8-ol]
100 to 500	≤ 10	10 to 100	≤ 1	Cc1cc(Nc2nc(C(F)(F)c3ccc(F)cn3)nc3c(C4CC4)cccc23)n[nH]1 [Example 51, 8-cyclopropyl-2-(difluoro(5-fluoropyridin-2-yl)methyl)-N-(5-methyl-1H-pyrazol-3-yl)quinazolin-4-amine]
> 500	≤ 10	≤ 10	≤ 1	Cc1cc(Nc2nc(C(F)(F)c3ccc(F)cn3)nc3cc(C(N)=O)ccc23)n[nH]1 [Example 41, 2-(difluoro(5-fluoropyridin-2-yl)methyl)-4-((5-methyl-1H-pyrazol-3-yl)amino)quinazoline-7-carboxamide]
≤ 100	≤ 10	≤ 10	≤ 1	Cc1cc(Nc2nc(C(F)(F)c3ccc(F)cn3)nc3c(NC=O)cccc23)n[nH]1 [Example 44, N-(2-(difluoro(5-fluoropyridin-2-yl)methyl)-4-((5-methyl-1H-pyrazol-3-yl)amino)quinazolin-8-yl)formamide]
≤ 100	≤ 10	≤ 10	≤ 1	Cc1cc(Nc2nc(C(F)(F)c3ccc(F)cn3)nc3c(N)cccc23)n[nH]1 [Example 50, 2-(difluoro(5-fluoropyridin-2-yl)methyl)-N4-(5-methyl-1H-pyrazol-3-yl)quinazoline-4,8-diamine]

Continued, compound first:

SMILES	IC50 [1] [nM]	Kd [2] [nM]	Kd [3] [nM]	Kd [4] [nM]
Cc1cc(Nc2nc(C(F)(F)c3ccc(F)cn3)nc3c(OC(F)(F)F)cccc23)n[nH]1 [Example 34, 2-(difluoro(5-fluoropyridin-2-yl)methyl)-N-(5-methyl-1H-pyrazol-3-yl)-8-(trifluoromethoxy)quinazolin-4-amine]	100 to 500	≤ 10	10 to 100	1 to 10
Cc1cc(Nc2nc(C(F)(F)c3ccc(F)cn3)nc3cc(C#N)ccc23)n[nH]1 [Example 8, 2-(difluoro(5-fluoropyridin-2-yl)methyl)-4-(5-methyl-1H-pyrazol-3-ylamino)quinazoline-7-carbonitrile]	≤ 100	≤ 10	10 to 100	1 to 10
Cc1cc(Nc2nc(C(F)(F)c3ccc(F)cn3)nc3c(C(N)=O)cccc23)n[nH]1 [Example 39, 2-(difluoro(5-fluoropyridin-2-yl)methyl)-4-((5-methyl-1H-pyrazol-3-yl)amino)quinazoline-8-carboxamide]	≤ 100	≤ 10	≤ 10	≤ 1
Cc1cc(Nc2nc(C(F)(F)c3ncc(F)cn3)nc3ccccc23)n[nH]1 [Example 3, 2-(difluoro(5-fluoropyrimidin-2-yl)methyl)-N-(5-methyl-1H-pyrazol-3-yl)quinazolin-4-amine]	≤ 100	≤ 10	10 to 100	≤ 1
Fc1ccc(C(F)(F)c2nc(Nc3cc[nH]n3)c3ccccc3n2)nc1 [Example 4, 2-(difluoro(5-fluoropyridin-2-yl)methyl)-N-(1H-pyrazol-3-yl)quinazolin-4-amine]	≤ 100	≤ 10	10 to 100	≤ 1
Cc1cc(Nc2nc(C(F)(F)c3ccc(F)cn3)nc3c(F)cccc23)n[nH]1 [Example 12, 2-(difluoro(5-fluoropyridin-2-yl)methyl)-8-fluoro-N-(3-methyl-1H-pyrazol-5-yl)quinazolin-4-amine]	≤ 100	≤ 10	≤ 10	≤ 1
Cc1cc(Nc2nc(C(F)(F)c3ccc(F)cn3)nc3c(C#N)cccc23)n[nH]1 [Example 35, 2-(difluoro(5-fluoropyridin-2-yl)methyl)-4-((5-methyl-1H-pyrazol-3-yl)amino)quinazoline-8-carbonitrile]	100 to 500	≤ 10	10 to 100	≤ 1
Cc1cc(Nc2nc(C(F)(F)c3ccc(F)cn3)nc3c(C(F)(F)F)cccc23)n[nH]1 [Example 33, 2-(difluoro(5-fluoropyridin-2-yl)methyl)-N-(5-methyl-1H-pyrazol-3-yl)-8-(trifluoromethyl)quinazolin-4-amine]	100 to 500	10 to 100	> 100	1 to 10
